Data: paper PMC12113347, “Compound 3d Attenuates Metabolic Dysfunction-Associated Steatohepatitis via Peroxisome Proliferator-Activated Receptor Pathway Activation and Inhibition of Inflammatory and Apoptotic Signaling” (Metabolites, 2025)
Like-named read-outs stand apart in the source and are kept apart here.

What was measured:
L02 cells [1] = experiment: FFA-induced lipid accumulation model in L02 cells (TG and ALT kits, Oil Red O); type: cell-based, human; settings: 0.9 mM FFA
Procedure: Free fatty acids (FFAs, OA:PA = 2:1) were used to induce the lipid model in L02 cells (Guangzhou Huatuo Biological Technology Co., Ltd., Guangzhou, China). The L02 cells (1 × 10^5 cells/mL) were inoculated in 12-well plates. After 24 h, the cells were starved for 12 h and then treated with DMSO or FFAs for 24 h. Subsequently, the cells were exposed to fenofibric acid (100 μM) or 3d (10, 20, 40 μM) for another 24 h.
The cells were collected and lysed using cell lysis solution; the supernatants were subjected to triglycerides (TGs) and alanine aminotransferase (ALT) kit assays. Moreover, following the completion of the treatment, the cells were fixed with 4% paraformaldehyde and stained with an Oil Red O, with the objective of observing the morphology under an inverted microscope.

L02 cells [2] = experiment: Effect of 3d on L02 cell proliferation/survival (Figure 1C); type: cell-based, human; settings: 3d alone
L02 cells [3] = experiment: ROS assay (DCFH-DA, flow cytometry) in FFA-treated L02 cells; type: cell-based, human; settings: FFA-induced L02 cells
Text: (§1) L02 cells were inoculated in 6-well plates at 1 × 10^5 cells/mL, and after completing the lipid-accumulating cell modeling treatment according to the method described in 2.1, the cells were collected and washed with 1× PBS buffer.
Reactive oxygen species (ROS) assay: ROS production was detected in the collected cells using a DCFH-DA fluorescent probe diluted in serum-free medium, and the stained cells were washed with 1× PBS buffer 3 times and then analyzed by flow cytometry.

L02 cells [4] = experiment: Apoptosis test (Annexin V/PI, flow cytometry) in FFA-treated L02 cells; type: cell-based, human; settings: after FFA treatment
Procedure: as §1
Apoptosis test: Binding Buffer was used to resuspend the modeling-treated cells, cells were stained with Annexin V/PI, and apoptosis was determined using flow cytometry.

gut microbiota = experiment: Gut microbiota composition by 16S rRNA sequencing in MASH mice; type: in vivo
Procedure: Proteome sequencing of liver tissue samples was performed according to the specific requirements of the protocol by Beijing Qinglian Baiao Biotechnology Co., Ltd. (Beijing, China). Mouse fecal samples were collected and frozen in liquid nitrogen and stored at −80 °C.
Total DNA was extracted by QIAamp DNA Stool Mini Kit, homogenized by lysis buffer, digested by proteinase, and purified by a centrifugal column and then passed through NanoDrop and agarose gel electrophoresis for quality control. PCR amplification was performed with primers specific to the V3-V4 region of the bacterial 16S rRNA gene (341F: 5′-CCTAYGGGRBGCASCAG-3′; 806R: 5′-[…]-3′), and the reaction system consisted of 2 × Taq PCR Master Mix, and the program was 95 °C pre-denaturation for […] (95 °C for 30 s, 55 °C for 30 s, 72 °C for 45 s) and extension at 72 °C for 10 min. After purification, bipartite sequencing was performed using the Illumina MiSeq PE300 platform. After QIIME2 quality control, the raw data were clustered into OTUs with 97% similarity, and the species were annotated based on the Silva database to analyze the Alpha/Beta diversity and differential flora.

[5] = In vitro stability in DMEM medium, simulated gastric fluid and simulated intestinal fluid (HPLC); type: in vitro ADME; settings: 40 μM, 37 °C
Procedure: Elafibranor and 3d (40 μM) were dissolved in DMEM medium, as well as in simulated gastric fluid (SGF) and simulated intestinal fluid (SIF), respectively, at 37 °C. The concentration of the compounds was determined within 24 h by HPLC. The HPLC conditions comprised an ACQUITY UPLC BEH C18 column maintained at 40 °C with a mobile phase consisting of 20% ultrapure water and 80% acetonitrile, with a flow rate of 1 mL/min at 360 nm.

[6] = Pharmacokinetics of 3d in male SD rats, gavage; type: in vivo; settings: for MRT last: read-out: MRT(0-t) (converted)
Procedure: The pharmacokinetics of 3d in vivo were evaluated using male SD rats. Following a 12 h fast, the rats were administered 3d (30 mg/kg) via gavage or tail vein injection, respectively, and blood samples were collected within 24 h for analysis of 3d blood concentration via HPLC. The PK parameters were calculated using the DAS 3.0, and oral bioavailability (F) was obtained by the following formula.F = AUCpo × Di.v/AUCi.v × Dpo × 100%(1)

[7] = male, SD, rat, blood, po, 30 mg/kg, rats, administered orally

In the case of `CNc1ccc(C(=O)/C=C/c2cc(C)c(OC(C)(C)C(=O)OC(C)(C)C)c(C)c2)cc1` [3d], the “intracellular lipid accumulation (Oil Red O morphology)” value (L02 cells [1]) is reported as “diminished intracellular lipid accumulation”, the ALT activity (L02 cells [1]; 3d 10, 20, 40 μM, 24 h) is reported as “notable reduction” and the “intracellular TG levels” value (L02 cells [1]; 3d 10, 20, 40 μM, 24 h) is reported as “notable reduction”. For the same compound, the “cell survival of L02 cells” value (L02 cells [2]) was “significantly increased cell survival”, the “intracellular ROS levels” value (L02 cells [3]) was “significant decrease in ROS levels” and the apoptosis (L02 cells [4]) was “decrease to near-normal levels”. For the same compound, the Bifidobacterium rise (gut microbiota) was 1.9 fold, the Lactobacillus increase (gut microbiota) was 2.7 fold and the Proteobacteria decrease (gut microbiota; p < 0.05) was 68%. The “abundance of Firmicutes and Actinobacteria” value (gut microbiota; phylum level) was “significantly increased”, the “abundance of Proteobacteria and Deferribacteres” value (gut microbiota; phylum level) was “significantly reduced and returned to normal levels” and the Shannon index (gut microbiota; α-diversity) was “decreased”. For the same compound, the Simpson index (gut microbiota; α-diversity) was “increased”, the “community richness, Chao1 and ACE indices” value (gut microbiota; α-diversity) was “no significant effect” and the “concentration in culture medium (stability)” value ([5]; DMEM, within 24 h) was “remained relatively constant”. The “concentration in gastric fluid (stability)” value ([5]; SGF) was “decreased significantly after 60 min”, the “concentration in intestinal fluid (stability)” value ([5]; SIF, within 24 h) was “remained relatively constant” and the “AUC(0-t)” value ([6]; SD rats, gavage, 30 mg/kg) was 30,236 ng/L*min. For the same compound, the “AUC(0-∞)” value ([6]; SD rats, gavage, 30 mg/kg) was 34,864 ng/L*min, the “AUMC(0-t)” value ([6]; SD rats, gavage, 30 mg/kg) was 7,351,242 and the “AUMC(0-∞)” value ([6]; SD rats, gavage, 30 mg/kg) was 12,023,223. The Cmax ([6]; SD rats, gavage, 30 mg/kg) was 0.113 ng/mL, the Cz ([6]; SD rats, gavage, 30 mg/kg) was 15 ng/L and the Tmax ([6]; SD rats, gavage, 30 mg/kg) was 2 h. The “VRT(0-t)” value ([6]; SD rats, gavage, 30 mg/kg) was 31,533 min^2, the “VRT(0-∞)” value ([6]; SD rats, gavage, 30 mg/kg) was 107,286 min^2 and the Zeta ([6]; SD rats, gavage, 30 mg/kg) was 0.003 min⁻¹. The Cmax ([6]; male, SD, rat, blood, po, 30 mg/kg, SD rats, gavage, 30 mg/kg, read-out: Cmax) was 0.113 ng/mL, the MRT last ([6]; male, SD, rat, blood, po, 30 mg/kg, SD rats, gavage, 30 mg/kg) was 4.05 h and the half-life [6, 7] was 3.4 h. The MRT last [6, 7] was 4 h, the Tmax ([6]; male, SD, rat, blood, po, 30 mg/kg, rats, administered orally, read-out: time of peak concentration) was 2 h and the bioavailability ([6]; male, SD, rat, blood, po, rats, 30 mg/kg gavage vs tail vein injection, read-out: oral bioavailability (F)) was 27.9%. It also gave an MRT inf ([6]; male, rat, blood, po, SD rats, gavage, 30 mg/kg, read-out: MRT(0-∞) (converted)) of 5.73 h.
